Reference: publication PMC9078525, “Inhibitory effects of garcinone E on fatty acid synthase” (RSC Advances, 2018)
Like-named read-outs stand apart in the source and are kept apart here. Blank lines part the entries; values can stand above or below the molecule they belong to.

Assays:
FAS = details: cited from earlier work
[1] = molecular target: T1, KR (β-ketoacyl reductase) of chicken FAS (Gallus gallus, UniProt P12276); assay: Time-dependent inactivation of KR reaction of FAS; format: biochemical
T1 construct: tissue Huadu Broiler Corporation, Beijing; host or cells: chicken liver
Experimental: (§1) The activity of KR was determined at 37 °C by measuring the change of absorption at 340 nm. The KR reaction mixture (2 ml) contained 40 mM ethyl acetoacetate, 35 μM NADPH, 1 mM EDTA, 1 mM DTT and 10 μg of FAS in 100 mM phosphate buffer, pH 7.0.[28]
(§2) Assay of time-dependent inhibition activity was carried out as previous described.[13] The FAS solution was mixed with garcinone E and incubated at 25 °C, and then aliquots were taken to measure the remaining activity at the indicated time intervals to obtain the time course. […] The rate constant of FAS inactivation can be calculated from a semi-log plot of the time course, which is based upon the formula ln At/A0 = −kobst. The At/A0 expresses the remaining activity at t time, and kobs is the observed rate constant. Based on earlier studies, the inhibition of FAS activity is due to both fast-binding and time-dependent inhibitions, although sometimes the fast-binding reversible inhibition is not potent enough to affect the enzyme.

chicken FAS = molecular target: T2, chicken FAS (Gallus gallus, UniProt P12276); assay: Substrate protection for time-dependent inactivation of FAS; format: biochemical; details: 10.0 μM garcinone E
T2 construct: tissue Huadu Broiler Corporation, Beijing; host or cells: chicken liver
Experimental: as §2
Furthermore, substrate protection for time-dependent inhibition was examined in the measurement of FAS inactivation by garcinone E with 10 μM Ac-CoA, 10 μM Mal-CoA, or 10 μM NADPH, respectively. Inactivation in the same condition but without any substrate was the control. […] Therefore, the substrates of Mal-CoA and NADPH had no obvious protection effect. However, the inactivation was slowed by Ac-CoA.

[2] = molecular target: T3, chicken FAS (overall reaction) (Gallus gallus, UniProt P12276); assay: Enzyme inhibition kinetics (double reciprocal plots, variable substrate); format: biochemical; details: for Ki: secondary plot of slopes, read-out: Inhibition constant Kis; for Inhibition constant Kii: secondary plot of intercepts
T3 construct: tissue Huadu Broiler Corporation, Beijing; host or cells: chicken liver
Description: Possible interference by the inhibitor at each substrate binding site was examined by holding the concentration of the inhibitor at several fixed levels respectively, and increasing one substrate concentration while keeping the concentrations of the other substrates constant. Double reciprocal plots for every concentration of the inhibitor were yielded to estimate the competitive relationship between the variable substrate and inhibitor concentrations. This study is based on fast-binding inhibition.
Inhibition kinetics study was carried out to elucidate the mechanism of the reversible inhibition of FAS by garcinone E. Possible interference by garcinone E at each substrate-binding site was examined by holding the concentration of garcinone E at a constant value, and measuring the effect of increasing one substrate concentration (the concentrations of the other two substrates were fixed) on the initial reaction rate. Double-reciprocal plots of the results (Fig. 3A–C) yielded three families of straight lines, which had different intersections, for three substrates of FAS. […] However, the lines for NADPH (Fig. 3C) intersected on the X axis, from which it was concluded that garcinone E was a typically noncompetitive inhibitor of FAS against NADPH.
Fig. 3 Lineweaver–Burke plots for inhibition of FAS activity by garcinone E. Double reciprocal plots for inhibition of FAS by garcinone E. The activity of the overall reaction of FAS was measured. (A) The concentrations of Mal-CoA and NADPH were fixed at 10 μM and 35 μM, respectively. Ac-CoA was the variable substrate. […] (B) The concentrations of Ac-CoA and NADPH were fixed at 3 μM and 35 μM, respectively. Mal-CoA was the variable substrate. […] (C) The concentrations of Ac-CoA and Mal-CoA were fixed at 3 μM and 10 μM, respectively. NADPH was the variable substrate. […] Each datum was the mean from 2–5 experiments.

[3] = molecular target: T3, chicken FAS (overall reaction); assay: Fast-binding inhibition of FAS overall reaction (NADPH absorption at 340 nm); format: biochemical; details: fast-binding reversible inhibition, 37 °C; read-out: IC50 (half-inhibitory concentration), overall reaction of FAS
Experimental: (§3) The preparation of FAS from chicken liver (Huadu Broiler Corporation, Beijing) was performed as described previously.[24] The amino acid sequence of chicken FAS has 63% identity with the sequence of human enzyme.[25] All animal operations followed the Guidelines for the Care and Use of Laboratory Animals established by the National Research Council (US) Institute for Laboratory Animal Research. The purified FAS was homogenized by polyacrylamide gel electrophoresis in the presence and absence of sodium dodecyl sulfate, respectively.
(§4) The FAS activity was measured at 37 °C by spectrophotometer at 340 nm of NADPH absorption. The overall reaction system contained 100 mM KH2PO4–K2HPO4 buffer, 1 mM EDTA, 1 mM dithiothreitol, 3 μM Ac-CoA, 10 μM Mal-CoA, 35 μM NADPH, and 10 μg FAS in a total volume of 2 ml as previously described.[26,27] The assay for β-ketoacyl reduction activity of FAS was catalyzed by KR containing 100 mM KH2PO4–K2HPO4 buffer, 200 mM ethyl acetoacetate, 35 μM NADPH, and 20 μg FAS in a total volume of 2 ml (pH 7.0).
Reversible inhibition was determined by adding the inhibitor to the reaction system before the reaction was initiated. The activities of FAS in the presence and absence of garcinone E (dissolved in DMSO) were designated as Ai and A0 respectively. The value of Ai/A0 × 100% was defined as the relative activity (R.A.) of FAS. […]

[4] = molecular target: T3, chicken FAS (overall reaction); assay: Time-dependent (slow-binding irreversible) inactivation of FAS overall reaction; format: biochemical
Experimental: as §2

[5] = molecular target: T1, KR (β-ketoacyl reductase) of chicken FAS; assay: Fast-binding inhibition of β-ketoacyl reduction (KR) activity of FAS; format: biochemical; details: fast-binding reversible inhibition, 37 °C
Experimental: as §3, §4, §1

T1 sequence (P12276 whole entry): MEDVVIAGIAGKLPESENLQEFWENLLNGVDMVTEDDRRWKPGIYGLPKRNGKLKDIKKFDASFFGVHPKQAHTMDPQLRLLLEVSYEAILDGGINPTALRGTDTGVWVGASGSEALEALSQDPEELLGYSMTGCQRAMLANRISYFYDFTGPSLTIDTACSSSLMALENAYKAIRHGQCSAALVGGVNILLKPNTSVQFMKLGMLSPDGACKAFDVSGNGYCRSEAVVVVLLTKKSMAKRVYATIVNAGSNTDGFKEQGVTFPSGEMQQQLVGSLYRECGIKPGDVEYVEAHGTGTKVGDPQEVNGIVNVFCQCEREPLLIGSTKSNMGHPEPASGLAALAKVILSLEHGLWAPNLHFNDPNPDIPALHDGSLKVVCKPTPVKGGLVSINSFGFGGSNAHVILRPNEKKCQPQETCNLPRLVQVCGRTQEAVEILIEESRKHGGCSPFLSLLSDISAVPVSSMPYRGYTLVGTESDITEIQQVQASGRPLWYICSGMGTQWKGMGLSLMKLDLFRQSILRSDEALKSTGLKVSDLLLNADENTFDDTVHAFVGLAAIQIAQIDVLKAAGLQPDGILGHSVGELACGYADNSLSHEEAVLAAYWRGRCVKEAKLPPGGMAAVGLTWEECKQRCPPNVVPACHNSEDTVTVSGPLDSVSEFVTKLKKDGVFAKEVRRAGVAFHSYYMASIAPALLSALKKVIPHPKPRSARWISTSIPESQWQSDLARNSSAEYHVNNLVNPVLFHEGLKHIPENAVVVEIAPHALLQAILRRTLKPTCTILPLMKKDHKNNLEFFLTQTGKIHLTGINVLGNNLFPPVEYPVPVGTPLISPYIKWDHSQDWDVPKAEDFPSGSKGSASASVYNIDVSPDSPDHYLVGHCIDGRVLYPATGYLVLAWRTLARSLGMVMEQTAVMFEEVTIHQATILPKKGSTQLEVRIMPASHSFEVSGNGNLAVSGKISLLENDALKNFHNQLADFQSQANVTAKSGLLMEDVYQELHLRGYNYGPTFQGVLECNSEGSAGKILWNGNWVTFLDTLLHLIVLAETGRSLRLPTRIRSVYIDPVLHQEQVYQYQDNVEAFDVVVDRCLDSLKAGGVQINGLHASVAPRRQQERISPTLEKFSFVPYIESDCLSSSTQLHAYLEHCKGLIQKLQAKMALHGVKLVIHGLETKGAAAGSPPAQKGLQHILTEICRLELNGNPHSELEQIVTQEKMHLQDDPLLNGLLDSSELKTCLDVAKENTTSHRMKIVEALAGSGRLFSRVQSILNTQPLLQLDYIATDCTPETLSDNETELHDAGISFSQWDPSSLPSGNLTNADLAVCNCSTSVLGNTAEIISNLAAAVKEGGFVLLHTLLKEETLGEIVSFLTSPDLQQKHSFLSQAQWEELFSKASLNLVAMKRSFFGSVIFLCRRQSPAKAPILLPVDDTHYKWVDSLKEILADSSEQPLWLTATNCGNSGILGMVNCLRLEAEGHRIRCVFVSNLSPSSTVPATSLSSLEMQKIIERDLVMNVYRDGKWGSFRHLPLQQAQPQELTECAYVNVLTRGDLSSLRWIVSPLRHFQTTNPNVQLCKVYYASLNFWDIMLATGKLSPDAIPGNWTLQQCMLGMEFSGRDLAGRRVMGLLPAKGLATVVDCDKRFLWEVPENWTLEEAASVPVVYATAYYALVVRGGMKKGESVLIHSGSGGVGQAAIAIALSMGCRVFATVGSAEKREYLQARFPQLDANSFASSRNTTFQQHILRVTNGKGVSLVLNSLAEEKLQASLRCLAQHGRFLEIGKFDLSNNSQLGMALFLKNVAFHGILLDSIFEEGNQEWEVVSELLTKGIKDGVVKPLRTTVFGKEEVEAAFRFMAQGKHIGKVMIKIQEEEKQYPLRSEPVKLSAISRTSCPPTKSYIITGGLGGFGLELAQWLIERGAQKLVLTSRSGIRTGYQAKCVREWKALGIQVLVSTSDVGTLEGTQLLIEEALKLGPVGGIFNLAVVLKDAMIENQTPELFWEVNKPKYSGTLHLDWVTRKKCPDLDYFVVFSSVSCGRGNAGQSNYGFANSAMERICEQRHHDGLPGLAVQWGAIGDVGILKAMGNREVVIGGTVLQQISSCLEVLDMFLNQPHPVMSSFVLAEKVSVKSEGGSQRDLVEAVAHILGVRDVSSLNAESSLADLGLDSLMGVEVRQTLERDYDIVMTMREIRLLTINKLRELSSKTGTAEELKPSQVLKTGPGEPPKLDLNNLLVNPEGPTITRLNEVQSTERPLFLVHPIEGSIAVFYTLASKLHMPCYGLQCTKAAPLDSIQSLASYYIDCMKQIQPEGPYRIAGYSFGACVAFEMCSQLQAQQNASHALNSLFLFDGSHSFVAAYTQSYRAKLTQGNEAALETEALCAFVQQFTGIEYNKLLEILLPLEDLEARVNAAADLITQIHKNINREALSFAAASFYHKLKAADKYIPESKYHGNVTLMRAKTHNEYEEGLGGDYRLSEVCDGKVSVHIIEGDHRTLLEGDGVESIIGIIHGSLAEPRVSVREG
T2 sequence (P12276 whole entry): as above
T3 sequence (P12276 whole entry): as above

Compound: O=C(O[C@@H]1Cc2c(O)cc(O)cc2O[C@@H]1c1cc(O)c(O)c(O)c1)c1cc(O)c(O)c(O)c1 [EGCG, epigallocatechin gallate]
- IC50 (FAS): 52 µM

Compound: C/C=C/C/C=C/CCC(=O)[C@H]1O[C@H]1C(N)=O [cerulenin]
- IC50 (FAS): 89 µM

- irreversible inhibition on KR, in words [1]: very weak
- kobs of FAS inactivation, KR ([1]; 20.0 μM garcinone E, incubated at 25 °C): 0.0004 min⁻¹
- kobs for inactivation of FAS (chicken FAS; no protection): 17.4 10^−3 min^−1
- reduction of apparent rate constant by pre-incubation with substrate (chicken FAS; pre-incubation with Mal-CoA and NADPH): less than 10%
- kobs for inactivation of FAS (chicken FAS; protection by 10 μM Ac-CoA): 5.3 10^−3 min^−1
- kobs for inactivation of FAS (chicken FAS; protection by 10 μM Mal-CoA): 16.6 10^−3 min^−1
- kobs for inactivation of FAS (chicken FAS; protection by 10 μM NADPH): 15.9 10^−3 min^−1
- Inhibitory manner ([2]; variable substrate Ac-CoA, Mal-CoA 10 μM, NADPH 35 μM): Competitive
- Ki ([2]; variable substrate Ac-CoA): 1.77 µM
- Inhibitory manner ([2]; variable substrate Mal-CoA, Ac-CoA 3 μM, NADPH 35 μM): Mixed competitive and noncompetitive
- Inhibition constant Kii ([2]; variable substrate Mal-CoA, binding with enzyme-substrate complex): 5.99 µM
- Ki ([2]; variable substrate Mal-CoA): 3.89 µM
- Inhibitory manner ([2]; variable substrate NADPH, Ac-CoA 3 μM, Mal-CoA 10 μM): Noncompetitive
- Inhibition constant Kii ([2]; variable substrate NADPH): 2.67 µM
- Ki ([2]; variable substrate NADPH): 1.94 µM
- IC50 [3]: 3.3 µM
- time-dependent (slow-binding irreversible) inhibition of FAS overall reaction, in words [4]: slow-binding irreversible inhibition
- fold difference in inactivation rate between overall reaction and KR ([4]; 20.0 μM garcinone E): more than 20 fold
- IC50 [5]: 14.6 µM
Compound: CC(C)=CCc1c(O)cc2oc3c(CC=C(C)C)c(O)c(O)c(CC=C(C)C)c3c(=O)c2c1O [garcinone E, 2,3,6,8-tetrahydroxy-1,4,7-tris(3-methylbut-2-enyl)-9H-xanthen-9-one]

Compound: COc1c(O)cc2oc3cc(O)c(CC=C(C)C)c(O)c3c(=O)c2c1CC=C(C)C [α-mangostin]
- time-dependent (slow-binding irreversible) inhibition of FAS overall reaction, in words [4]: none of them showed slow-binding inactivation

Compound: COc1cc2oc3cc(O)c(OC)c(CC=C(C)C)c3c(=O)c2c(O)c1CC=C(C)C [β-mangostin]
- time-dependent (slow-binding irreversible) inhibition of FAS overall reaction, in words [4]: none of them showed slow-binding inactivation

Compound: CC(C)=CCc1c(O)cc2oc3cc(O)c(O)c(CC=C(C)C)c3c(=O)c2c1O [γ-mangostin]
- time-dependent (slow-binding irreversible) inhibition of FAS overall reaction, in words [4]: none of them showed slow-binding inactivation
